Reference: patent US6642392B1 (priority 1997, dated 2003)
Where two headings read alike, the source gives them in different places.

Legend:
Type in all cases: in vivo
Puccinia recondita = assay: Test B: wheat leaf rust, preventive spray on wheat seedlings; details: for Test B disease control rating: wheat leaf rust; for Test B disease control rating (100 = 100% disease control, 0 = no disease control): wheat seedlings sprayed to run-off, inoculated the following day, rating relative to controls, unmarked compounds (standard test rate)
Method in brief: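 Preventive test: P. recondita spores were applied one day after a run-off spray of compound suspension on wheat seedlings. Plants had 24 h at 20 °C in saturated air plus 6 days in a 20 °C growth chamber. Scoring is % disease control (100 = full) relative to controls.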

Pyricularia oryzae = details: for Test C disease control rating: rice blast; for Test C disease control rating (100 = 100% disease control, 0 = no disease control): rice seedlings sprayed to run-off, inoculated the following day, rating relative to controls, unmarked compounds (standard test rate)
[1] = tested on: Eiysiphe graminis f. sp. tritici; assay: Test A: wheat powdery mildew, preventive spray on wheat seedlings; details: for Test A disease control rating: wheat powdery mildew; for Test A disease control rating (100 = 100% disease control, 0 = no disease control): wheat seedlings sprayed to run-off, inoculated the following day, rating relative to controls, unmarked compounds (standard test rate)
Method in brief: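 Preventive test: seedlings inoculated with powdery mildew spores one day after run-off spraying of a suspension. Ratings after 7 days in a 20° C growth chamber express percent disease control versus controls.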

Phytophthora infestans = details: for Test D disease control rating: tomato late blight; for Test D disease control rating (100 = 100% disease control, 0 = no disease control): tomato seedlings sprayed to run-off, inoculated the following day, rating relative to controls, unmarked compounds (standard test rate)
Botrytis cinerea = assay: Test E: gray mold, preventive spray on cucumber seedlings; details: for Test E disease control rating: gray mold on cucumber; for Test E disease control rating (100 = 100% disease control, 0 = no disease control): cucumber seedlings sprayed to run-off, inoculated the following day, rating relative to controls, unmarked compounds (standard test rate)
Method in brief: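 Preventive spray on cucumber seedlings used a suspension (3% acetone, 250 ppm Trem 014), applied to run-off one day before inoculation with Botrytis cinerea spores. Plants were held 48 h at 20° C in saturated air, then 5 days at 20° C. Percent disease control was scored relative to untreated plants.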

[2] = 100 = 100% disease control, 0 = no control, unmarked entries (standard test concentration)
[3] = 100 = 100% disease control, 0 = no control relative to controls, unmarked entries (standard test concentration)

| Compound | Test B disease control rating (Puccinia recondita; [2]) | Test C disease control rating (Pyricularia oryzae; [2]) | Test A disease control rating [1, 3] | Test D disease control rating (Phytophthora infestans; [2]) | Test E disease control rating (Botrytis cinerea; [2]) | also measured |
| --- | --- | --- | --- | --- | --- | --- |
| C[C@H](COc1ccc(F)cc1F)NC(=O)C(C#N)C(C)(C)C (single isomer, unassigned) [27a] | 0% | 100% | 38% | 81% | 0% |  |
| CCC1(C(=O)NC(C)COc2cc(Cl)c(Cl)cc2Cl)C(C)C1(Cl)Cl (stereo not drawn) [compound 242] |  |  |  |  |  | Test B disease control rating (100 = 100% disease control, 0 = no disease control) (Puccinia recondita): 0%; Test C disease control rating (100 = 100% disease control, 0 = no disease control) (Pyricularia oryzae): 74%; Test A disease control rating (100 = 100% disease control, 0 = no disease control) [1]: 0%; Test D disease control rating (100 = 100% disease control, 0 = no disease control) (Phytophthora infestans): 96%; Test E disease control rating (100 = 100% disease control, 0 = no disease control) (Botrytis cinerea): 0% |
| C[C@H](COc1ccccc1Br)NC(=O)C(C#N)C(C)(C)C (single isomer, unassigned) [8c] | 0% | 100% | 0% | 0% | 0% |  |
| CC(COc1ccccc1CC#N)NC(=O)C(C#N)C(C)(C)C (mixture of isomers) [compound 16] | 0% | 97% | 0% | 48% | 0% |  |
| CCC1(C(=O)NC(C)COc2ccc(Br)cc2)C(C)C1(Cl)Cl (mixture of isomers) [86a] |  |  |  |  |  | Test B disease control rating (Puccinia recondita; tested at 40 ppm): 67%; Test C disease control rating (Pyricularia oryzae; tested at 40 ppm): 0%; Test A disease control rating ([1]; tested at 40 ppm): 0%; Test D disease control rating (Phytophthora infestans; tested at 40 ppm): 0%; Test E disease control rating (Botrytis cinerea; tested at 40 ppm): 0% |
| CCC1(C(=O)NC(C)COc2c(Cl)cccc2Cl)C(C)C1(Cl)Cl (stereo not drawn) [compound 114] |  |  |  |  |  | Test B disease control rating (Puccinia recondita; tested at 40 ppm): 0%; Test C disease control rating (Pyricularia oryzae; tested at 40 ppm): 0%; Test A disease control rating ([1]; tested at 40 ppm): 83%; Test D disease control rating (Phytophthora infestans; tested at 40 ppm): 0%; Test E disease control rating (Botrytis cinerea; tested at 40 ppm): 0% |
| CC(COc1cccc(I)c1C#N)NC(=O)C(C#N)C(C)C(C)(C)C (mixture of isomers) [compound 65] | 0% | 0% | 0% | 2% | 0% |  |
| C[C@H](COc1cccc(Cl)c1)NC(=O)C(C#N)C(C)(C)C (single isomer, unassigned) [6e] | 0% | 100% | 0% | 96% | 70% |  |
| CCC1(C(=O)NC(C)COc2cc(F)cc(F)c2Cl)C(C)C1(Cl)Cl (stereo not drawn) [compound 123] |  |  |  |  |  | Test B disease control rating (Puccinia recondita; tested at 40 ppm): 0%; Test C disease control rating (Pyricularia oryzae; tested at 40 ppm): 53%; Test A disease control rating ([1]; tested at 40 ppm): 90%; Test D disease control rating (Phytophthora infestans; tested at 40 ppm): 0%; Test E disease control rating (Botrytis cinerea; tested at 40 ppm): 0% |
| CC(COc1ccccc1Br)NC(=O)C1(C)CC1(Cl)Cl (mixture of isomers) [compound 313] |  |  |  |  |  | Test B disease control rating (100 = 100% disease control, 0 = no disease control) (Puccinia recondita): 0%; Test C disease control rating (100 = 100% disease control, 0 = no disease control) (Pyricularia oryzae): 26%; Test A disease control rating (100 = 100% disease control, 0 = no disease control) [1]: 0%; Test D disease control rating (100 = 100% disease control, 0 = no disease control) (Phytophthora infestans): 32%; Test E disease control rating (100 = 100% disease control, 0 = no disease control) (Botrytis cinerea): 47% |
| CCC1(C(=O)NCCCc2ccccc2)C(C)C1(Cl)Cl (stereo not drawn) [compound 154] | 0% | 52% | 52% | 0% | 0% |  |
| C=CC(C)(CC)C(C#N)C(=O)NC(C)COc1cc(F)ccc1Cl (mixture of isomers) [compound 298] |  |  |  |  |  | Test B disease control rating (100 = 100% disease control, 0 = no disease control) (Puccinia recondita): 0%; Test C disease control rating (100 = 100% disease control, 0 = no disease control) (Pyricularia oryzae): 99%; Test A disease control rating (100 = 100% disease control, 0 = no disease control) [1]: 62%; Test D disease control rating (100 = 100% disease control, 0 = no disease control) (Phytophthora infestans): 99%; Test E disease control rating (100 = 100% disease control, 0 = no disease control) (Botrytis cinerea): 0% |
| CC(COc1ccc(F)cc1)NC(=O)C(C#N)C(C)(C)C (single isomer, unassigned) [4a] | 67% | 99% | 0% | 66% | 0% |  |
| CC(COc1ccccc1Br)NC(=O)C(C#N)C(C)C(C)(C)C (mixture of isomers) [compound 59] |  |  |  |  |  | Test B disease control rating (Puccinia recondita; tested at 40 ppm): 0%; Test C disease control rating (Pyricularia oryzae; tested at 40 ppm): 52%; Test A disease control rating ([1]; tested at 40 ppm): 0%; Test D disease control rating (Phytophthora infestans; tested at 40 ppm): 0%; Test E disease control rating (Botrytis cinerea; tested at 40 ppm): 0% |
| C[C@H](COc1cc(F)ccc1Br)NC(=O)C(C#N)C(C)(C)C (single isomer, unassigned) [166b] | 0% | 99% | 0% | 0% | 0% |  |
| C[C@H](COc1cc(F)ccc1F)NC(=O)C(C#N)C(C)(C)C=CF (single isomer, unassigned) [221a] |  |  |  |  |  | Test B disease control rating (100 = 100% disease control, 0 = no disease control) (Puccinia recondita): 0%; Test C disease control rating (100 = 100% disease control, 0 = no disease control) (Pyricularia oryzae): 100%; Test A disease control rating (100 = 100% disease control, 0 = no disease control) [1]: 0%; Test D disease control rating (100 = 100% disease control, 0 = no disease control) (Phytophthora infestans): 41%; Test E disease control rating (100 = 100% disease control, 0 = no disease control) (Botrytis cinerea): 0% |
| CCC1(C(=O)NC(C)COc2ccc(Cl)c(Cl)c2)C(C)C1(Cl)Cl (stereo not drawn) [compound 230] |  |  |  |  |  | Test B disease control rating (100 = 100% disease control, 0 = no disease control) (Puccinia recondita): 0%; Test C disease control rating (100 = 100% disease control, 0 = no disease control) (Pyricularia oryzae): 53%; Test A disease control rating (100 = 100% disease control, 0 = no disease control) [1]: 0%; Test D disease control rating (100 = 100% disease control, 0 = no disease control) (Phytophthora infestans): 0%; Test E disease control rating (100 = 100% disease control, 0 = no disease control) (Botrytis cinerea): 45% |
| CCC1(C(=O)NC(C)COc2cc(Cl)ccc2C#N)C(C)C1(Cl)Cl (stereo not drawn) [compound 239] |  |  |  |  |  | Test B disease control rating (100 = 100% disease control, 0 = no disease control) (Puccinia recondita): 0%; Test C disease control rating (100 = 100% disease control, 0 = no disease control) (Pyricularia oryzae): 97%; Test A disease control rating (100 = 100% disease control, 0 = no disease control) [1]: 0%; Test D disease control rating (100 = 100% disease control, 0 = no disease control) (Phytophthora infestans): 88%; Test E disease control rating (100 = 100% disease control, 0 = no disease control) (Botrytis cinerea): 0% |
| C[C@H](COc1ccc(F)c(F)c1F)NC(=O)C(C#N)C(C)(C)C (single isomer, unassigned) [190a] | 0% | 91% | 0% | 0% | 6% |  |
| CC(COc1cc(F)c(F)cc1C#N)NC(=O)C(C#N)C(C)(C)C (mixture of isomers) [compound 207] | 0% | 0% | 0% | 0% | 0% |  |
| CCC1(C(=O)NC(C)COc2cccc(Cl)c2C#N)C(C)C1(Cl)Cl (mixture of isomers) [compound 131] | 0% | 53% | 0% | 52% | 0% |  |
| CCC1(C(=O)NC(C)COc2ccc(Cl)cc2)C(C)C1(Cl)Cl (mixture of isomers) [83a] |  |  |  |  |  | Test B disease control rating (Puccinia recondita; tested at 40 ppm): 0%; Test C disease control rating (Pyricularia oryzae; tested at 40 ppm): 32%; Test A disease control rating ([1]; tested at 40 ppm): 0%; Test D disease control rating (Phytophthora infestans; tested at 40 ppm): 0%; Test E disease control rating (Botrytis cinerea; tested at 40 ppm): 0% |
| CCC1(C(=O)NCC=Cc2cccc(F)c2)C(C)C1(Cl)Cl (stereo not drawn) [compound 264] |  |  |  |  |  | Test B disease control rating (100 = 100% disease control, 0 = no disease control) (Puccinia recondita): 0%; Test C disease control rating (100 = 100% disease control, 0 = no disease control) (Pyricularia oryzae): 90%; Test A disease control rating (100 = 100% disease control, 0 = no disease control) [1]: 0%; Test D disease control rating (100 = 100% disease control, 0 = no disease control) (Phytophthora infestans): 54%; Test E disease control rating (100 = 100% disease control, 0 = no disease control) (Botrytis cinerea): 94% |
| C[C@H](COc1ccc(F)c(F)c1)NC(=O)C(C#N)C(C)(C)C (single isomer, unassigned) [30b] | 27% | 97% | 77% | 0% | 0% |  |
| C[C@H](COc1cc(Cl)cc(Cl)c1)NC(=O)C(C#N)C(C)(C)C (single isomer, unassigned) [35a] | 0% | 74% | 0% | 80% | 0% |  |
| Cc1cccc(C#N)c1OCC(C)NC(=O)C(C#N)C(C)(C)C (mixture of isomers) [compound 209] | 0% | 86% | 0% | 0% | 0% |  |
| C#CC(C)(C)C(C#N)C(=O)NC(C)COc1cc(F)ccc1F (mixture of isomers) [compound 211] | 0% | 100% | 63% | 76% | 0% |  |
